{"source": "PubChem BioAssay (NCI)", "assay_in_all_cases": "NCI-60 cell line screen, 384-well format", "key": {"[1]": {"test_system": "MDA-MB-231 breast"}, "[2]": {"test_system": "TK-10 renal"}, "[3]": {"test_system": "NCI-H322M lung"}, "[4]": {"test_system": "UACC-257 melanoma"}, "[5]": {"test_system": "RXF 393 renal"}, "[6]": {"test_system": "CAKI-1 renal"}, "[7]": {"test_system": "SF-268 CNS"}, "[8]": {"test_system": "A549 NSCLC"}, "[9]": {"test_system": "SN12C renal"}, "[10]": {"test_system": "LOX IMVI melanoma"}, "[11]": {"test_system": "SW-620 colon"}, "[12]": {"test_system": "MCF7 breast"}, "[13]": {"test_system": "SK-OV-3 ovarian"}, "[14]": {"test_system": "UACC-62 melanoma"}, "[15]": {"test_system": "UO-31 renal"}, "[16]": {"test_system": "ACHN renal"}, "[17]": {"test_system": "HL-60(TB) leukemia"}, "[18]": {"test_system": "OVCAR-5 ovarian"}, "[19]": {"test_system": "SNB-19 CNS"}, "[20]": {"test_system": "RPMI-8226 leukemia"}, "[21]": {"test_system": "BT-549 breast"}, "[22]": {"test_system": "SK-MEL-28 melanoma"}, "[23]": {"test_system": "KM12 colon"}, "[24]": {"test_system": "NCI-H226 lung"}, "[25]": {"test_system": "MALME-3M melanoma"}, "[26]": {"test_system": "A498 renal"}, "[27]": {"test_system": "T-47D breast"}, "[28]": {"test_system": "786-0 renal"}, "[29]": {"test_system": "CCRF-CEM leukemia"}, "[30]": {"test_system": "HCT-116 colon"}, "[31]": {"test_system": "IGROV1 ovarian"}, "[32]": {"test_system": "K-562 leukemia"}, "[33]": {"test_system": "OVCAR-3 ovarian"}, "[34]": {"test_system": "OVCAR-8 ovarian"}, "[35]": {"test_system": "NCI/ADR-RES ovarian"}, "[36]": {"test_system": "NCI-H522 lung"}, "[37]": {"test_system": "MDA-MB-468 breast"}, "[38]": {"test_system": "HS 578T breast"}, "[39]": {"test_system": "MDA-MB-435 melanoma"}, "[40]": {"test_system": "U251 glioblastoma"}, "[41]": {"test_system": "MOLT-4 leukemia"}, "[42]": {"test_system": "SF-295 CNS"}, "[43]": {"test_system": "SNB-75 CNS"}, "[44]": {"test_system": "HCT-15 colon"}, "[45]": {"test_system": "HT29 colon"}, "[46]": {"test_system": "SF-539 CNS"}, "[47]": {"test_system": "PC-3 prostate"}, "[48]": {"test_system": "HOP-92 NSCLC"}, "[49]": {"test_system": "HOP-62 NSCLC"}, "[50]": {"test_system": "EKVX NSCLC"}, "[51]": {"test_system": "M14 melanoma"}, "[52]": {"test_system": "NCI-H23 lung"}}, "note": "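GI50 marks 50% less growth. TGI: concentration producing complete growth inhibition.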"}
{"compound": "S=c1nc[nH]c2nc[nH]c12", "values": [{"measurement": "GI50", "setting": "[1]", "value": 395, "unit": "nM"}, {"measurement": "TGI", "setting": "[1]", "value": 1860, "unit": "nM"}, {"measurement": "GI50", "setting": "[2]", "value": 437, "unit": "nM"}, {"measurement": "TGI", "setting": "[2]", "value": 2190, "unit": "nM"}, {"measurement": "GI50", "setting": "[3]", "value": 1060, "unit": "nM"}, {"measurement": "TGI", "setting": "[3]", "value": 7.28, "unit": "µM"}, {"measurement": "GI50", "setting": "[4]", "value": 2040, "unit": "nM"}, {"measurement": "GI50", "setting": "[5]", "value": 241, "unit": "nM"}, {"measurement": "TGI", "setting": "[5]", "value": 1160, "unit": "nM"}, {"measurement": "GI50", "setting": "[6]", "value": 1570, "unit": "nM"}, {"measurement": "TGI", "setting": "[6]", "value": 5.45, "unit": "µM"}, {"measurement": "GI50", "setting": "[7]", "value": 1110, "unit": "nM"}, {"measurement": "TGI", "setting": "[7]", "value": 2800, "unit": "nM"}, {"measurement": "GI50", "setting": "[8]", "value": 5.6, "unit": "µM"}, {"measurement": "TGI", "setting": "[8]", "value": 57.1, "unit": "µM"}, {"measurement": "GI50", "setting": "[9]", "value": 2430, "unit": "nM"}, {"measurement": "TGI", "setting": "[9]", "value": 19.4, "unit": "µM"}, {"measurement": "GI50", "setting": "[10]", "value": 206, "unit": "nM"}, {"measurement": "TGI", "setting": "[10]", "value": 481, "unit": "nM"}, {"measurement": "GI50", "setting": "[11]", "value": 4.15, "unit": "µM"}, {"measurement": "GI50", "setting": "[12]", "value": 272, "unit": "nM"}, {"measurement": "TGI", "setting": "[12]", "value": 10.2, "unit": "µM"}, {"measurement": "GI50", "setting": "[13]", "value": 569, "unit": "nM"}, {"measurement": "GI50", "setting": "[14]", "value": 876, "unit": "nM"}, {"measurement": "GI50", "setting": "[15]", "value": 1860, "unit": "nM"}, {"measurement": "TGI", "setting": "[15]", "value": 5.23, "unit": "µM"}, {"measurement": "GI50", "setting": "[16]", "value": 1830, "unit": "nM"}, {"measurement": "TGI", "setting": "[16]", "value": 6.91, "unit": "µM"}, {"measurement": "GI50", "setting": "[17]", "value": 357, "unit": "nM"}, {"measurement": "TGI", "setting": "[17]", "value": 1840, "unit": "nM"}, {"measurement": "GI50", "setting": "[18]", "value": 1250, "unit": "nM"}, {"measurement": "TGI", "setting": "[18]", "value": 2800, "unit": "nM"}, {"measurement": "GI50", "setting": "[19]", "value": 11.3, "unit": "µM"}, {"measurement": "TGI", "setting": "[19]", "value": 37, "unit": "µM"}, {"measurement": "GI50", "setting": "[20]", "value": 289, "unit": "nM"}, {"measurement": "TGI", "setting": "[20]", "value": 1280, "unit": "nM"}, {"measurement": "GI50", "setting": "[21]", "value": 482, "unit": "nM"}, {"measurement": "TGI", "setting": "[21]", "value": 2300, "unit": "nM"}, {"measurement": "GI50", "setting": "[22]", "value": 15.4, "unit": "µM"}, {"measurement": "TGI", "setting": "[22]", "value": 99.6, "unit": "µM"}, {"measurement": "GI50", "setting": "[23]", "value": 1330, "unit": "nM"}, {"measurement": "GI50", "setting": "[24]", "value": 294, "unit": "nM"}, {"measurement": "TGI", "setting": "[24]", "value": 11.9, "unit": "µM"}, {"measurement": "GI50", "setting": "[25]", "value": 494, "unit": "nM"}, {"measurement": "TGI", "setting": "[25]", "value": 3.14, "unit": "µM"}, {"measurement": "GI50", "setting": "[26]", "value": 10.6, "unit": "µM"}, {"measurement": "TGI", "setting": "[26]", "value": 96.7, "unit": "µM"}, {"measurement": "GI50", "setting": "[27]", "value": 423, "unit": "nM"}, {"measurement": "GI50", "setting": "[28]", "value": 468, "unit": "nM"}, {"measurement": "TGI", "setting": "[28]", "value": 2200, "unit": "nM"}, {"measurement": "GI50", "setting": "[29]", "value": 1420, "unit": "nM"}, {"measurement": "TGI", "setting": "[29]", "value": 3, "unit": "µM"}, {"measurement": "GI50", "setting": "[30]", "value": 1800, "unit": "nM"}, {"measurement": "GI50", "setting": "[31]", "value": 3.63, "unit": "µM"}, {"measurement": "GI50", "setting": "[32]", "value": 334, "unit": "nM"}, {"measurement": "TGI", "setting": "[32]", "value": 950, "unit": "nM"}, {"measurement": "GI50", "setting": "[33]", "value": 168, "unit": "nM"}, {"measurement": "TGI", "setting": "[33]", "value": 389, "unit": "nM"}, {"measurement": "GI50", "setting": "[34]", "value": 1480, "unit": "nM"}, {"measurement": "TGI", "setting": "[34]", "value": 5.93, "unit": "µM"}, {"measurement": "GI50", "setting": "[35]", "value": 2060, "unit": "nM"}, {"measurement": "TGI", "setting": "[35]", "value": 8.77, "unit": "µM"}, {"measurement": "GI50", "setting": "[36]", "value": 299, "unit": "nM"}, {"measurement": "TGI", "setting": "[36]", "value": 1770, "unit": "nM"}, {"measurement": "GI50", "setting": "[37]", "value": 150, "unit": "nM"}, {"measurement": "TGI", "setting": "[37]", "value": 416, "unit": "nM"}, {"measurement": "GI50", "setting": "[38]", "value": 473, "unit": "nM"}, {"measurement": "TGI", "setting": "[38]", "value": 3.38, "unit": "µM"}, {"measurement": "GI50", "setting": "[39]", "value": 729, "unit": "nM"}, {"measurement": "GI50", "setting": "[40]", "value": 3.3, "unit": "µM"}, {"measurement": "GI50", "setting": "[41]", "value": 151, "unit": "nM"}, {"measurement": "TGI", "setting": "[41]", "value": 318, "unit": "nM"}, {"measurement": "GI50", "setting": "[42]", "value": 1130, "unit": "nM"}, {"measurement": "TGI", "setting": "[42]", "value": 3.71, "unit": "µM"}, {"measurement": "GI50", "setting": "[43]", "value": 217, "unit": "nM"}, {"measurement": "TGI", "setting": "[43]", "value": 5.13, "unit": "µM"}, {"measurement": "GI50", "setting": "[44]", "value": 4.73, "unit": "µM"}, {"measurement": "GI50", "setting": "[45]", "value": 1890, "unit": "nM"}, {"measurement": "GI50", "setting": "[46]", "value": 481, "unit": "nM"}, {"measurement": "TGI", "setting": "[46]", "value": 2910, "unit": "nM"}, {"measurement": "GI50", "setting": "[47]", "value": 2400, "unit": "nM"}, {"measurement": "GI50", "setting": "[48]", "value": 301, "unit": "nM"}, {"measurement": "GI50", "setting": "[49]", "value": 219, "unit": "nM"}, {"measurement": "TGI", "setting": "[49]", "value": 592, "unit": "nM"}, {"measurement": "GI50", "setting": "[50]", "value": 53.9, "unit": "µM"}, {"measurement": "GI50", "setting": "[51]", "value": 306, "unit": "nM"}, {"measurement": "GI50", "setting": "[52]", "value": 576, "unit": "nM"}, {"measurement": "TGI", "setting": "[52]", "value": 5.86, "unit": "µM"}]}
